Measured values: a melting point compilation (Tetko et al.; mined from patent text by program, amines drawn as free bases though some values may be those of a salt)

Structure (SMILES)	melting point [°C]
O=C1N(Cc2cccc(C(F)(F)F)c2)c2ccccc2C12COc1cc3c(cc12)OCCO3 (stereo not given)	131 to 134
Nc1cccc(CCO)c1	61 to 64
COc1cc(Br)c(Br)cc1N1CCN(CCCNc2c(C)c(=O)n(C)c(=O)n2C)CC1	153 to 155
CCc1c(-c2ccc(OCc3ccccc3)cc2)c2c(C(=O)OC)c(C(=O)OC)c3c(OCc4ccccc4)ccc1n32	115 to 120
C#Cc1cc(Cc2cnc(N)nc2N)cc(OC)c1OC	173 to 175
C=C(c1ccc(N(C(=O)c2c(I)cccc2C(N)=O)C(C)C)c(C)c1)C(F)(F)F	201 to 203
NC(=O)c1cc(Cl)c(F)c(Cl)c1F	145 to 147
Nc1ccc(-n2cc(C(F)(F)F)ccc2=O)c(Cl)c1	136 to 138
c1cc(-n2ccnc2)cc(-n2cnc3cc(-c4ccco4)ccc32)c1	175 to 177
Nc1ccc(N2CCN(CCCC(=O)c3ccc(F)cc3)CC2)nc1N	128 to 130
CCCOc1ncc(N(C)C)cc1-c1nc2c(CCC)nn(C)c2c(=O)[nH]1	162
O=C(O)C1c2cc(Br)ccc2OCc2ncccc21 (stereo not given)	126 to 127
BrCc1ccc2c(c1)CCO2	57 to 60
Cc1cc(-c2cc(O)c(SCc3ccccc3)c(=O)o2)cc(C)c1O[Si](C)(C)C(C)(C)C	137 to 139
CN1C(=O)OCCc2cc(Nc3ncc(Cl)c(Nc4c(F)cccc4OCCO)n3)ccc21	199 to 201
CC1(C)OC(=S)Nc2ccc(-c3cccc(Cl)c3)cc21	183 to 184
CN(CCCCc1ccc(NC(=O)c2cccc3c(=O)c4ccccc4[nH]c23)cc1)Cc1ccc(F)cc1	151
COc1cc(N)c(Cl)cc1C(=O)NCC1CCN(CCCCSc2ccccc2)CC1	102 to 105
COc1ccc(-c2nc(N)sc2CCN2CC=C(c3ccccc3)CC2)cc1	163
CC(=O)Nc1ccc(C)cc1Oc1c(NCc2ccccc2)cc(C(=O)O)cc1S(N)(=O)=O	203
Cn1nc(-c2cc([N+](=O)[O-])c(Cl)cc2Cl)cc1OC(F)F	134 to 137

Structure (SMILES)	melting point [°C]
CCN(CC)c1ccc(N(CC)CC)c(N2CCNCC2)n1	120
CCCC1=C(C#N)C(c2cccc([N+](=O)[O-])c2Cl)c2c[nH]nc2N1 (stereo not given)	234 to 235
Cn1cc(Cl)c(=O)c(-c2cccc(C(F)(F)F)c2)c1	170 to 172
NN(Cc1ccc(Cl)cc1)c1ccc(OCc2ccc3ccccc3n2)cc1	130
Cc1ccc(-c2cccn2-c2ccc(S(C)(=O)=O)cc2)cc1	186 to 187
CCOC(=O)c1cc(=O)cc(-c2cccc([N+](=O)[O-])c2)o1	148 to 152
CCOC(=O)c1cccc2c1N(CCN1CC=C(c3c[nH]c4cc(F)ccc34)CC1)S(=O)(=O)N(C(C)C)C2	95 to 97
CN(CCOc1ccccc1)[C@H]1CC[C@H](c2ccc(OCc3ccccc3)cc2)CC1	67 to 69
COc1nnc(C)c(-c2ccc(Cl)nc2)c1-c1c(F)cc(F)cc1F	123 to 124
Cc1c(Cc2cccc(C(F)(F)F)c2)oc2c(-c3cccc(C(=O)NCCC#N)c3)cccc12	158 to 159
O=C(Nc1ccc2c(c1)C(=O)CCCC2)OCc1ccccc1	120 to 121
CCOC(=O)c1cc2cc(NC(C)C)ccc2nn1	167 to 168
CC(C)c1nsc(N)c1C#N	130 to 132
CCCN1C(=O)C(NC(=O)Nc2cccc(N(C)c3nnn[nH]3)c2)N=C(N2CCN(C)CC2)c2ccccc21 (single isomer, unassigned; (-))	141 to 142
CCN1CC2OC(c3ccccc3)(C1)c1ccccc12 (stereo not given)	132 to 134
O=C(O)CCSCc1nccc2ccccc12	126 to 130
COc1ccc([C@@H]2Sc3cc(Oc4ccc(F)cc4)ccc3NC(=O)[C@@H]2O)cc1	198 to 200
O=C1CCC(Nc2ccc3[nH]c(=O)c(C(=O)O)cc3c2)N1 (stereo not given)	> 300
N#Cc1c(-c2cccc(N)c2)cc(-c2ccccc2O)nc1NC(=O)c1ccsc1	257 to 260
CCN1C(=O)C(C)(C)c2ccc(C(=O)Nc3ccccc3)cc21	227 to 230

The remaining lines, values ahead:

melting point [°C]	Structure (SMILES)
224 to 226	NS(=O)(=O)c1ccc(C2=NNC(C(=O)O)C2)cc1 (stereo not given)
86 to 89	COc1ccc(I)c(CC(=O)N(C)C)c1
208 to 210	CCNCC1CCN(c2c(F)cc3c(=O)c(C(=O)O)cn(CC)c3c2F)C1 (stereo not given)
96 to 99	COc1cccc(-c2nc(-c3ccccn3)no2)c1
214	CCC1COC(NC(=O)c2ccc(Cl)c(Cl)c2)C2CCCCN12 (stereo not given)
184 to 185	CCN(c1nc(-c2c(F)cccc2OC)c2[nH]ncc2n1)c1ccc(C(F)(F)F)cc1Cl
105 to 107	COc1cc2c(cc1O)C(C)(C)CC2=O
152 to 153	COc1cccc(C(=O)c2ccc(OCc3nc(-c4ccccc4)oc3C)cc2)c1O
83 to 85	CCOC(=O)c1cc2cccnc2nc1C(=O)OCC
157 to 159	OCC(O)CNc1nnc(-c2ccc(F)c(F)c2Nc2ccc(I)cc2F)o1 (stereo not given)
177 to 178	CCOC(=O)c1ccc(-c2cnc3c(c2)N(C(=O)c2ccccc2)CCN3)cc1
120 to 123	NCCc1cccc(N2C(=O)N(c3cc(Cl)ccc3Cl)Cc3cnc(Nc4ccccc4)nc32)c1
86 to 87	O=C(Nc1ccc(Cl)cc1)C(F)(F)C(O)(Cn1cncn1)c1ccc(F)cc1F (stereo not given)
127 to 128	CCCc1c[nH]nc1OCCCc1cn(-c2ccc(C(F)(F)F)cn2)nc1CCC
199 to 200	NC(=S)NC[C@H]1CN(c2ccc(N3CCOCC3)c(F)c2)C(=O)O1
70	CC(C)(C)OC(=O)C1CCC(c2ccco2)N1C(=O)OC(C)(C)C (mixture of isomers)
> 260	Cn1ccnc1Sc1ccc(Nc2c(C#N)cnc3cc(-c4ccc(N5CCSCC5)nc4)ccc23)cc1Cl
211	CCCC1=C(C(=O)OCC)C(c2ccccc2C#N)c2c[nH]nc2N1 (stereo not given)
155 to 157	OCCn1nc(-c2ccc(F)cc2)c(-c2ccncc2)c1C1CC1
151 to 152	CCCCc1ccc(NC(=O)c2ccc([N+](=O)[O-])cc2)cc1
207 to 208	Cc1cc(C(N)=S)c2c(c1C)C(=O)CC2
82 to 84	Cc1ccc(-c2cc3c(s2)CCCCC3=O)cc1
136 to 138	CNC(=O)COc1cc(OC)ccc1O
134 to 135	CSc1nnc(SCC(=O)C23CC4CC(CC(C4)C2)C3)s1
70 to 71	CC(C)c1cnc(NC(=O)Cc2csc(NC(=O)CN(C)C)n2)s1
209 to 210	O=C(O)c1cc(Cl)cc2c1NCCO2
206 to 208	CC(Oc1ncn(-c2cccc(C(F)(F)F)c2)n1)C(=O)O (stereo not given)
122 to 123	COc1ccc(-c2ccccc2)cc1N1CCN(C(=O)Nc2cc3ccccc3nc2OC)CC1
180 to 181	CC(C)c1cccc(C(C)C)c1NC(=O)NC1CC(C)(C)c2ccccc2C1(C)C (stereo not given)
